In ChEMBL document CHEMBL3351591, “Synthetic (+)-terrein suppresses interleukin-6/soluble interleukin-6 receptor induced-secretion of vascular endothelial growth factor in human gingival fibroblasts” (Bioorg Med Chem, 2014):
Calls of active or inactive are those of the source. The calls are words filed in the database; no cut-off is given here.

Assays:
[1] = Cytotoxicity against HGF cells assessed as cell proliferation at <10 uM incubated for 24 hrs by MTT assay; assay type: cell-based; settings: human
[2] = Cytotoxicity against HGF cells assessed as reduction in cell proliferation at >50 uM incubated for 24 hrs by MTT assay; assay type: cell-based; settings: human
HGF [3] = experiment: Inhibition of IL-6/soluble IL-6 receptor signaling-induced VEGF secretion in HGF cells pre-incubated for 30 mins before IL-6/soluble IL-6 receptor stimulation for 24 hrs by ELISA method; assay type: cell-based; settings: Homo sapiens
HGF [4] = experiment: Inhibition of IL-6/soluble IL-6 receptor signaling-induced STAT3 phosphorylation in HGF cells pre-incubated at 10 to 20 uM for before IL-6/soluble IL-6 receptor stimulation for 5 mins by Western blotting method; assay type: cell-based; settings: Homo sapiens
HGF [5] = experiment: Inhibition of IL-6/soluble IL-6 receptor signaling-induced ERK1/2 phosphorylation in HGF cells pre-incubated at 10 to 20 uM for before IL-6/soluble IL-6 receptor stimulation for 5 mins by Western blotting method; assay type: cell-based; settings: Homo sapiens
HGF [6] = experiment: Inhibition of IL-6/soluble IL-6 receptor signaling-induced JNK1/2 phosphorylation in HGF cells pre-incubated at 10 to 20 uM for before IL-6/soluble IL-6 receptor stimulation for 5 mins by Western blotting method; assay type: cell-based; settings: Homo sapiens
HGF [7] = experiment: Inhibition of endogenous VEGF secretion in HGF cells at 0.01 to 10 uM by ELISA method; assay type: functional, cell-based; settings: Homo sapiens

## C/C=C/C1=CC(=O)[C@H](O)[C@H]1O
[1]
  Activity: Non-toxic
[2]
  Activity: Toxic
HGF [3]
  inhibition: Dose-dependent effect
HGF [4]
  inhibition: Active
HGF [5]
  inhibition: Active
HGF [6]
  inhibition: Active
HGF [7]
  inhibition: inactive
